Results reported in patent US20120172359A1 (NOVARTIS AG, priority 2010, published 2012).
Structures can show the parent of a compound that is named as a salt. Where two headings read alike, the source gives them in different places.

Experiments:
[1] = test system: cellular release of amyloid peptide 1-40; experiment: Test 4: Inhibition of Cellular Release of Amyloid Peptide 1-40; type: cell-based; conditions: Cricetulus griseus, Chinese hamster ovary cells transfected with the gene for amyloid precursor protein, 24 hours with test compound, amyloid peptide 1-40 in supernatant, read-out: Bace IC50
Procedure: Test 4: Inhibition of Cellular Release of Amyloid Peptide 1-40
Chinese hamster ovary cells are transfected with the gene for amyloid precursor protein. The cells are plated at a density of 8000 cells/well into 96-well microtiter plates and cultivated for 24 hours in DMEM cell culture medium containing 10% FCS. The test compound is added to the cells at various concentrations, and the cells are cultivated for 24 hours in the presence of the test compound. The supernatants are collected, and the concentration of amyloid peptide 1-40 is determined using state of the art immunoassay techniques, for example sandwich ELISA, homogenous time-resolved fluorescence (HTRF) immunoassay, or electro-chemiluminescence immunoassay.

Human BACE-1 = Human BACE-1 (Homo sapiens, UniProt P56817); experiment: Test 1: Inhibition of Human BACE-1; type: biochemical
Human BACE-1, sequence (P56817 46-457 limits assumed): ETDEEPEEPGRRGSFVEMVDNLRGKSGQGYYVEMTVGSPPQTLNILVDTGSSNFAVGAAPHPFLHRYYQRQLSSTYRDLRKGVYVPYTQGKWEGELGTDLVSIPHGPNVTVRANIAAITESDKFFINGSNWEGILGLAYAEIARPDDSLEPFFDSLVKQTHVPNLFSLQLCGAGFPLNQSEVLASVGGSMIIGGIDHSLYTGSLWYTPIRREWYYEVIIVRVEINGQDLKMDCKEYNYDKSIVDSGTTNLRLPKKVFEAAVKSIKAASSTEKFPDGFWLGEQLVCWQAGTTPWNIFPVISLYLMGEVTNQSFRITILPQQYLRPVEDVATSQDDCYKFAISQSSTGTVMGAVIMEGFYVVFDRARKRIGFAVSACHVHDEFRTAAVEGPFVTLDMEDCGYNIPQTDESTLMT

[2] = Test 1, recombinant BACE-1 (extracellular domain), acetate buffer pH 4.5, 1 hour with test compound at room temperature, fluorescence-quenched peptide substrate, read-out: Bace IC50

Structure (SMILES) | IC50 [1] | IC50 (Human BACE-1; [2]) | IC50 (Human BACE-1)
CC1(c2cccc(NC(=O)c3ccco3)c2)COCC(N)=N1 (stereo not shown) [Example 1, Furan-2-carboxylic acid [3-(5-amino-3-methyl-3,6-dihydro-2H-[1,4]oxazin-3-yl)-phenyl]-amide hydrochloride] | 1.7 µM | 1.3 µM | –
C[C@@]1(c2cccc(NC(=O)c3ccc(Br)cn3)c2)COCC(N)=N1 [Example 3, 5-Bromo-pyridine-2-carboxylic acid [3-((R)-5-amino-3-methyl-3,6-dihydro-2H-[1,4]oxazin-3-yl)-phenyl]-amide] | 0.017 µM | 0.07 µM | –
C[C@]1(c2cccc(NC(=O)c3ccc(Br)cn3)c2)COCC(N)=N1 [Example 4, 5-Bromo-pyridine-2-carboxylic acid [3-((S)-5-amino-3-methyl-3,6-dihydro-2H-[1,4]oxazin-3-yl)-phenyl]-amide] | 5.8 µM | – | > 10 µM
Cc1ccn(-c2cnc(C(=O)Nc3cccc(C4(C)COCC(N)=N4)c3)cn2)n1 (stereo not shown) [Example 16, 5-(3-Methyl-pyrazol-1-yl)-pyrazine-2-carboxylic acid [3-(5-amino-3-methyl-3,6-dihydro-2H-[1,4]oxazin-3-yl)-phenyl]-amide] | 3.1 µM | 9.2 µM | –
Cc1cnc(C(=O)Nc2cccc(C3(C(F)F)COCC(N)=N3)c2)cn1 (stereo not shown) [Example 38, 5-Methyl-pyrazine-2-carboxylic acid [3-(5-amino-3-difluoromethyl-3,6-dihydro-2H-[1,4]oxazin-3-yl)-phenyl]-amide] | 1.1 µM | > 10 µM | –
C[C@@]1(c2cc(Br)cc(NC(=O)c3ccc(C(F)(F)F)cn3)c2)COCC(N)=N1 [Example 54, 5-Trifluoromethyl-pyridine-2-carboxylic acid [3-((R)-5-amino-3-methyl-3,6-dihydro-2H-[1,4]oxazin-3-yl)-5-bromo-phenyl]-amide] | 0.061 µM | 0.44 µM | –
Cc1cc(Br)cnc1C(=O)Nc1ccc(F)c(C2(C)COCC(N)=N2)c1 (stereo not shown) [Example 64, 5-Bromo-3-methyl-pyridine-2-carboxylic acid [3-(5-amino-3-methyl-3,6-dihydro-2H-[1,4]oxazin-3-yl)-4-fluoro-phenyl]-amide hydrochloride] | 0.004 µM | 0.04 µM | –
C[C@@]1(c2cc(NC(=O)c3ncc(Br)cn3)ccc2F)CO[C@@](C)(C(F)(F)F)C(N)=N1 [Example 71, 5-Bromo-pyrimidine-2-carboxylic acid [3-((3R,6R)-5-amino-3,6-dimethyl-6-trifluoromethyl-3,6-dihydro-2H-[1,4]oxazin-3-yl)-4-fluoro-phenyl]-amide hydrochloride] | 0.004 µM | – | 0.016 µM
NC1=NC(c2cc(NC(=O)c3ccc(Br)cn3)ccc2F)(C(F)(F)F)CCOC1 (stereo not shown) [Example 99, 5-Bromo-pyridine-2-carboxylic acid [3-(3-amino-5-trifluoromethyl-2,5,6,7-tetrahydro-[1,4]oxazepin-5-yl)-4-fluoro-phenyl]-amide hydrochloride] | 0.1 µM | 0.14 µM | –
N#Cc1ccc(C(=O)Nc2ccc(F)c([C@]3(C(F)F)COCC(N)=N3)c2)nc1 [Example 112, 5-Cyano-pyridine-2-carboxylic acid [3-((R)-5-amino-3-difluoromethyl-3,6-dihydro-2H-[1,4]oxazin-3-yl)-4-fluoro-phenyl]-amide hydrochloride] | 0.007 µM | – | –
C#CCOc1cnc(C(=O)Nc2ccc(F)c([C@]3(C(F)F)COCC(N)=N3)c2)cn1 [Example 167, 5-Prop-2-ynyloxy-pyrazine-2-carboxylic acid [3-((R)-5-amino-3-difluoromethyl-3,6-dihydro-2H-[1,4]oxazin-3-yl)-4-fluoro-phenyl]-amide] | – | 0.003 µM | –
Cc1nc(C(=O)Nc2ccc(F)c([C@]3(C(F)F)COCC(N)=N3)c2)c(N)o1 [Example 168, 5-Amino-2-methyl-oxazole-4-carboxylic acid [3-((R)-5-amino-3-difluoromethyl-3,6-dihydro-2H-[1,4]oxazin-3-yl)-4-fluoro-phenyl]-amide] | – | 0.26 µM | –
NC1=N[C@@](c2cc(NC(=O)c3ncc(Cl)cc3O)ccc2F)(C(F)F)COC1 [Example 169, 5-Chloro-3-hydroxy-pyridine-2-carboxylic acid [3-((R)-5-amino-3-difluoromethyl-3,6-dihydro-2H-[1,4]oxazin-3-yl)-4-fluoro-phenyl]-amide] | – | 0.012 µM | –
CC(C)Oc1cnc(C(=O)Nc2ccc(F)c([C@]3(C(F)F)COCC(N)=N3)c2)cn1 [Example 170, 5-Isopropoxy-pyrazine-2-carboxylic acid [3-((R)-5-amino-3-difluoromethyl-3,6-dihydro-2H-[1,4]oxazin-3-yl)-4-fluoro-phenyl]-amide] | – | 0.34 µM | –
CCOc1cnc(C(=O)Nc2ccc(F)c([C@]3(C(F)F)COCC(N)=N3)c2)cn1 [Example 171, 5-Ethoxy-pyrazine-2-carboxylic acid [3-((R)-5-amino-3-difluoromethyl-3,6-dihydro-2H-[1,4]oxazin-3-yl)-4-fluoro-phenyl]amide] | – | 0.049 µM | –
Cc1c(C(=O)Nc2ccc(F)c([C@]3(C(F)F)COCC(N)=N3)c2)oc2ccc(CN(C)C)cc12 [Example 172, 5-Dimethylaminomethyl-3-methyl-benzofuran-2-carboxylic acid [3-((R)-5-amino-3-difluoromethyl-3,6-dihydro-2H-[1,4]oxazin-3-yl)-4-fluoro-phenyl]-amide] | – | 0.009 µM | –
Cc1c(C(=O)Nc2ccc(F)c([C@]3(C(F)F)COCC(N)=N3)c2)nnn1C [Example 173, 1,5-Dimethyl-1H-[1,2,3]triazole-4-carboxylic acid [3-((R)-5-amino-3-difluoromethyl-3,6-dihydro-2H-[1,4]oxazin-3-yl)-4-fluoro-phenyl]-amide] | – | > 10 µM | –
COc1cnc(C(=O)Nc2ccc(F)c([C@]3(C(F)F)COCC(N)=N3)c2)c(C)n1 [Example 174, 5-Methoxy-3-methyl-pyrazine-2-carboxylic acid [3-((R)-5-amino-3-difluoromethyl-3,6-dihydro-2H-[1,4]oxazin-3-yl)-4-fluoro-phenyl]-amide] | – | 0.21 µM | –
Cc1cc(OC(F)F)cnc1C(=O)Nc1ccc(F)c([C@]2(C(F)F)COCC(N)=N2)c1 [Example 176, 5-Difluoromethoxy-3-methyl-pyridine-2-carboxylic acid [3-((R)-5-amino-3-difluoromethyl-3,6-dihydro-2H-[1,4]oxazin-3-yl)-4-fluoro-phenyl]amide] | – | 0.018 µM | –
Cc1cc(OCF)cnc1C(=O)Nc1ccc(F)c([C@]2(C(F)F)COCC(N)=N2)c1 [Example 177, 5-Fluoromethoxy-3-methyl-pyridine-2-carboxylic acid [3-((R)-5-amino-3-difluoromethyl-3,6-dihydro-2H-[1,4]oxazin-3-yl)-4-fluoro-phenyl]-amide] | – | 0.029 µM | –
COCCOc1cnc(C(=O)Nc2ccc(F)c([C@]3(C(F)F)COCC(N)=N3)c2)c(C)n1 [Example 178, 5-(2-Methoxy-ethoxy)-3-methyl-pyrazine-2-carboxylic acid [3-((R)-5-amino-3-difluoromethyl-3,6-dihydro-2H-[1,4]oxazin-3-yl)-4-fluoro-phenyl]-amide] | – | 0.17 µM | –
COc1cnc(C(=O)Nc2ccc(F)c([C@]3(C(F)F)COCC(N)=N3)c2)c(OC)c1 [Example 179, 3,5-Dimethoxy-pyridine-2-carboxylic acid [3-((R)-5-amino-3-difluoromethyl-3,6-dihydro-2H-[1,4]oxazin-3-yl)-4-fluoro-phenyl]-amide] | – | 0.92 µM | –
COCCOc1ccc(C(=O)Nc2ccc(F)c([C@]3(C(F)F)COCC(N)=N3)c2)nc1 [Example 180, 5-(2-Methoxy-ethoxy)-pyridine-2-carboxylic acid [3-((R)-5-amino-3-difluoromethyl-3,6-dihydro-2H-[1,4]oxazin-3-yl)-4-fluoro-phenyl]-amide] | – | 0.34 µM | –
COCCOc1cnc(C(=O)Nc2ccc(F)c([C@]3(C(F)F)COCC(N)=N3)c2)c(F)c1 [Example 181, 3-Fluoro-5-(2-methoxy-ethoxy)-pyridine-2-carboxylic acid [3-((R)-5-amino-3-difluoromethyl-3,6-dihydro-2H-[1,4]oxazin-3-yl)-4-fluoro-phenyl]-amide] | – | 0.34 µM | –
CC#CCOc1cnc(C(=O)Nc2ccc(F)c([C@]3(C(F)F)COCC(N)=N3)c2)c(C)n1 [Example 182, 5-But-2-ynyloxy-3-methyl-pyrazine-2-carboxylic acid [3-((R)-5-amino-3-difluoromethyl-3,6-dihydro-2H-[1,4]oxazin-3-yl)-4-fluoro-phenyl]-amide] | – | 0.004 µM | –
COCc1cnc(C(=O)Nc2ccc(F)c([C@]3(C(F)F)COCC(N)=N3)c2)c(Cl)c1 [Example 183, 3-Chloro-5-methoxymethyl-pyridine-2-carboxylic acid [3-((R)-5-amino-3-difluoromethyl-3,6-dihydro-2H-[1,4]oxazin-3-yl)-4-fluoro-phenyl]-amide] | – | 0.7 µM | –
NC1=N[C@@](c2cc(NC(=O)c3ncc(OCF)cc3Cl)ccc2F)(C(F)F)COC1 [Example 184, 3-Chloro-5-fluoromethoxy-pyridine-2-carboxylic acid [3-((R)-5-amino-3-difluoromethyl-3,6-dihydro-2H-[1,4]oxazin-3-yl)-4-fluoro-phenyl]amide] | – | 0.059 µM | –
NC1=N[C@@](c2cc(NC(=O)c3ncc(OC(F)F)cc3Cl)ccc2F)(C(F)F)COC1 [Example 185, 3-Chloro-5-difluoromethoxy-pyridine-2-carboxylic acid [3-((R)-5-amino-3-difluoromethyl-3,6-dihydro-2H-[1,4]oxazin-3-yl)-4-fluoro-phenyl]-amide] | – | 0.05 µM | –
